Measured values from US20260097083A1, “METHOD FOR PRODUCING PANCREATIC ENDODERM CELLS” (Kyoto University, priority 2022, published 2026).

How the values were obtained:
[1] = system: PDX1+/NKX6.1+ pancreatic endoderm cells; experiment: Expansion culture with Y-27632 at different concentrations; format: cell-based; settings: 40 days, FIG. 5-A
Protocol: FIG. 5-A Changes in the number of PDX1^+/NKX6.1^+ pancreatic endoderm cells and the total number of cells during expansion culture with Y-27632 (0, 10, or 50 μM). (1) After the cells produced in clause 1 above were washed with PBS(−), 1 ml of 0.25% trypsin-EDTA was added thereto, and the cells were incubated at 37° C. and 5% CO2 for 5 minutes. (2) The adherent cells were detached through pipetting and were added to a 50-ml centrifuge tube. (3) 4 ml of DMEM (Dulbecco's Modified Eagle Medium)/10% FBS/PS (penicillin-streptomycin) was added to the centrifuge tube. (4) The resulting mixture was centrifuged at 400 G for 3 minutes, and the supernatant was removed. (5) The cells were suspended in improved MEM (containing 10 μM Y-27632, 0.5×B-27 Supplement, and 100 U/ml penicillin/streptomycin), and were counted. (6) When the cells were seeded on a 6-well plate, an amount of the suspension necessary to provide 1×10^6 cells/well was collected and was centrifuged at 400 G for 3 minutes (2×10^5 cells/well for a 24-well plate). (7) After the supernatant was removed, the cells were re-suspended in improved MEM (containing 100 ng/ml KGF, 50 ng/ml EGF, 10 mM nicotinamide, 50 μM Y-27632, 0.5×B-27 Supplement, and 100 U/ml penicillin/streptomycin), the suspension was adjusted to correspond to 2 ml/well, and then the cells were seeded. A 6-well plate to which the cells were to be seeded had been coated in advance by adding a solution formed by mixing 10 μl of iMatrix-511 silk and 1.5 ml of PBS(−) to each well 1 hour before seeding, and incubating the plate at 37° C. and 5% CO2 for 1 hour. (8) On the next day (Day 1), the cells were washed with improved MEM, and then the culture medium was changed to improved MEM (5 ml/well) containing 100 ng/ml KGF, 50 ng/ml EGF, 10 mM nicotinamide, 50 μM Y-27632, 0.5×B-27 Supplement, and 100 U/ml penicillin/streptomycin. (9) The cells were washed with improved MEM 3 days after that (on Day 4), and then the culture medium was changed to the same culture medium as that in the step (7) (5 ml/well). (10) The steps (1) to (7) above were conducted 3 days after that (on Day 7), and the next passage (expansion culture) was conducted. Expansion culture and passage culture were repeated by repeating the steps (8), (9), and (10) from the next day. One round of the passage (expansion culture) corresponded to 7 days (operations above). FIGS. 4-A show the outline of this procedure. […]

[2] = system: pancreatic endoderm cells after expansion culture; experiment: Induction of differentiation into β-like cells after expansion culture; format: cell-based
Protocol: After the expansion culture, the differentiation into β-like cells was induced using the method by Kimura et al. (Non Patent Literature 1) with a portion thereof being modified. Briefly, pancreatic endoderm cells were detached from a 6-well plate using trypsin, and were then suspended in the S4 culture medium at 3×10^5 cells/ml. The cells were seeded on a V-bottomed 96-well plate at 3×10^4 cells/100 μl/well. […] The induction of differentiation of pancreatic endoderm cells that had been repeatedly passaged 5 times using the expansion culture method with “Y-27632+DMSO” or “Y-27632+ALK5i+RA” into β-like cells was promoted. Then, the efficiency of induction into β-like cells was compared with that of a cell cluster obtained by inducing pancreatic endoderm cells that had not been passaged into B-like cells.

## C[C@@H](N)[C@H]1CC[C@H](C(=O)Nc2ccncc2)CC1 [Y-27632]
[1]; Y-27632 10 μM
  number of PDX1+/NKX6.1+ pancreatic endoderm cells increased by a factor of: about 1×10^4
  total number of cells increased by a factor of: about 1×10^4
[1]; Y-27632 50 μM
  number of PDX1+/NKX6.1+ pancreatic endoderm cells increased by a factor of: about 1×10^4
  total number of cells increased by a factor of: about 1×10^4
[2]; after 2 rounds of expansion culture with Y-27632 50 μM, FIG. 4-G
  potential to differentiate into β-like cells: had a potential to differentiate
[2]; culture medium for expansion culture with Y-27632
  efficiency of induction to β-like cells on repeated expansion culture: tended to gradually decrease
